Data as given in US11020375B2, “Edaravone dosage form” (SUZHOU AUZONE BIOLOGICAL TECHNOLOGY CO., LTD, priority 2016, dated 2021).

Experiments:
[1] = Stability studies in simulated gastrointestinal fluids at various pHs; type: physicochemical
Description: Simulated gastrointestinal fluids (without enzymes and bile component) were prepared according to the USP methods. SGF (simulated gastric fluid) 1.2 pH (USP) and SIF (Simulating Intestinal fluid) 6.8 pH (USP) and 7.4 pH. To determine the chemical stability of SD formulations, the solutions in miliQ water was prepared and used. SD formulation was dissolved in aforesaid buffer solutions. Samples were collected at the predetermined time interval and filtered through 0.45 μm PVDF syringe filter. All samples were analysed in triplicate by HPLC.

[2] = Screening drug carrier Soluplus and optimizing solid dispersion: solubility of Edaravone by HPLC; type: physicochemical; settings: 1%-6% w/v carrier solutions, 24 hours at room temperature (FIG. 2)
Description: To separate glass vials, 1%, 2%, 3%, 4%, 5% and 6% w/v solutions of different carriers was added, respectively. An excess amount of Edaravone was added to the above mentioned solutions followed by continuous rotation using a mechanical shaker (Axyos Technologies, Brisbane, Australia) throughout the test for 24 hours at room temperature. After reaching equilibrium, each vial was centrifuged at 3000 rpm for 5 min, and excess insoluble Edaravone was discarded by filtration through 0.45 μm PVDF syringe filter. Subsequently, the filtrates were diluted using methanol. The solubility analysis was performed in triplicate by using the previously developed and validated HPLC method.

CC1=NN(c2ccccc2)C(=O)C1 [Edaravone, 3-methyl-1-phenyl-2-pyrazol-5-one]
stability in biorelevant media ([1]; acidic pH (FIG. 8A)): maintained substantially constant
stability in biorelevant media ([1]; neutral to basic pH (FIG. 8A)): significant degradation
solubility of Edaravone in Soluplus carrier solutions [2]: solubility improvement in concentration-dependent manner
